Experimental findings from the NIST ThermoML archive (doi:10.1021/acs.jced.5b00192) are described below.

Series [1] is described as follows: Molar enthalpy of transition or fusion. The following applies: DSC.
The conditions of series [2]: DTA.

Molecules are shown by their SMILES. Numbers after ± are expanded uncertainties.

`O=C1c2cccc(O)c2C(=O)c2c(O)cccc21` [1,8-dihydroxyanthraquinone]: the “Molar enthalpy of transition or fusion” value in series [1] (Crystal 1) amounted to 4.79 ± 0.179 kcal/mol; in series [1] (Crystal 2) it was 1.19 ± 0.0454 kcal/mol. For the same compound, the Normal melting temperature in series [2] (Crystal 1) worked out at 195.38 ± 1.5 °C. Moreover, the Triple point temperature in series [2] (Crystal 2) amounted to 435.39 ± 0.86 K.
